# Laboratory results reported in ChEMBL document CHEMBL1201862, “PubChem BioAssay data set” (2004).
#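 All cell lines were grown in 96-well plates and treated with compound for 48 hours. Abbreviation: GI50, concentration required for 50% inhibition of growth.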 Active and inactive are the calls of the source. No stated cut-off is given here; in the data, active = GI50 up to about 1.1 µM and inactive = higher.
# Key:
# Assay in all cases: inhibition of tumour cell growth, NCI panel, 48 h
# U-251 = tested on: U-251
# OVCAR-5 = tested on: OVCAR-5
# IGROV-1 = tested on: IGROV-1
# HCC 2998 = tested on: HCC 2998
# SK-MEL-5 = tested on: SK-MEL-5
# M19-MEL = tested on: M19-MEL
# RXF 393 = tested on: RXF 393
# OVCAR-3 = tested on: OVCAR-3
# NCI-H522 = tested on: NCI-H522
# DMS-114 = tested on: DMS-114
# A549 = tested on: A549
# Malme-3M = tested on: Malme-3M
# SNB-78 = tested on: SNB-78
# SK-MEL-2 = tested on: SK-MEL-2
# SF-295 = tested on: SF-295
# SN12C = tested on: SN12C
# NCI-H226 = tested on: NCI-H226
# 786-0 = tested on: 786-0
# SF-268 = tested on: SF-268
# HOP-18 = tested on: HOP-18
# K562 = tested on: K562
# M14 = tested on: M14
# SNB-19 = tested on: SNB-19
# MOLT-4 = tested on: MOLT-4
# HCT-15 = tested on: HCT-15
# CCRF-CEM = tested on: CCRF-CEM
# HCT-116 = tested on: HCT-116
# OVCAR-8 = tested on: OVCAR-8
# SNB-75 = tested on: SNB-75
# EKVX = tested on: EKVX
# DLD-1 = tested on: DLD-1
# SF-539 = tested on: SF-539
# KM-20L2 = tested on: KM-20L2
# UACC-62 = tested on: UACC-62
# LOX IMVI = tested on: LOX IMVI
# DMS-273 = tested on: DMS-273
# HOP-92 = tested on: HOP-92
# A498 = tested on: A498
# SR = tested on: SR
# HOP-62 = tested on: HOP-62
# LXFL 529 = tested on: LXFL 529
# CAKI-1 = tested on: CAKI-1
# COLO 205 = tested on: COLO 205
# TK-10 = tested on: TK-10
# RPMI-8226 = tested on: RPMI-8226
# HT-29 = tested on: HT-29
# SK-OV-3 = tested on: SK-OV-3
# SW-620 = tested on: SW-620
# UO-31 = tested on: UO-31
# KM12 = tested on: KM12
# NCI-H23 = tested on: NCI-H23
# XF498 = tested on: XF498
# NCI-H460 = tested on: NCI-H460
# OVCAR-4 = tested on: OVCAR-4
# UACC-257 = tested on: UACC-257
# HL-60 = tested on: HL-60
# ACHN = tested on: ACHN
# SK-MEL-28 = tested on: SK-MEL-28
smiles,measurement,setting,value
Cc1c(/C=C2\CC/C(=C\c3[nH]c(C(=O)OC(C)(C)C)c(C)c3C)C2=O)[nH]c(C(=O)OC(C)(C)C)c1C,GI50,U-251,> 100 µM (inactive)
same,GI50,OVCAR-5,> 100 µM (inactive)
same,GI50,IGROV-1,> 100 µM (inactive)
same,GI50,HCC 2998,> 100 µM (inactive)
same,GI50,SK-MEL-5,> 100 µM (inactive)
same,GI50,M19-MEL,> 100 µM (inactive)
same,GI50,RXF 393,> 100 µM (inactive)
same,GI50,OVCAR-3,> 100 µM (inactive)
same,GI50,NCI-H522,> 100 µM (inactive)
same,GI50,DMS-114,> 100 µM (inactive)
same,GI50,A549,> 100 µM (inactive)
same,GI50,Malme-3M,> 100 µM (inactive)
same,GI50,SNB-78,> 100 µM (inactive)
same,GI50,SK-MEL-2,> 100 µM (inactive)
same,GI50,SF-295,> 100 µM (inactive)
same,GI50,SN12C,> 100 µM (inactive)
same,GI50,NCI-H226,> 100 µM (inactive)
same,GI50,786-0,> 100 µM (inactive)
same,GI50,SF-268,> 100 µM (inactive)
same,GI50,HOP-18,> 100 µM (inactive)
same,GI50,K562,> 100 µM (inactive)
same,GI50,M14,> 100 µM (inactive)
same,GI50,SNB-19,> 100 µM (inactive)
same,GI50,MOLT-4,> 100 µM (inactive)
same,GI50,HCT-15,> 100 µM
same,GI50,CCRF-CEM,> 100 µM (inactive)
same,GI50,HCT-116,> 100 µM (inactive)
same,GI50,OVCAR-8,> 100 µM (inactive)
same,GI50,SNB-75,60.1 µM (inactive)
same,GI50,EKVX,> 100 µM (inactive)
same,GI50,DLD-1,> 100 µM (inactive)
same,GI50,SF-539,> 100 µM (inactive)
same,GI50,KM-20L2,> 100 µM (inactive)
same,GI50,UACC-62,> 100 µM (inactive)
same,GI50,LOX IMVI,> 100 µM (inactive)
same,GI50,DMS-273,> 100 µM (inactive)
same,GI50,HOP-92,> 100 µM (inactive)
same,GI50,A498,> 100 µM (inactive)
same,GI50,SR,> 100 µM (inactive)
same,GI50,HOP-62,> 100 µM (inactive)
same,GI50,LXFL 529,> 100 µM (inactive)
same,GI50,CAKI-1,> 100 µM (inactive)
same,GI50,COLO 205,> 100 µM (inactive)
same,GI50,TK-10,> 100 µM (inactive)
same,GI50,RPMI-8226,> 100 µM (inactive)
same,GI50,HT-29,> 100 µM (inactive)
same,GI50,SK-OV-3,> 100 µM (inactive)
same,GI50,SW-620,> 100 µM (inactive)
same,GI50,UO-31,> 100 µM (inactive)
same,GI50,KM12,> 100 µM (inactive)
same,GI50,NCI-H23,> 100 µM (inactive)
same,GI50,XF498,> 100 µM (inactive)
same,GI50,NCI-H460,> 100 µM (inactive)
same,GI50,OVCAR-4,> 100 µM (inactive)
same,GI50,UACC-257,> 100 µM (inactive)
same,GI50,HL-60,> 100 µM (inactive)
CCOC(=O)CCC1(C(=O)OCC)CCCCC1=O (configuration not stated),GI50,U-251,> 100 µM (inactive)
same,GI50,OVCAR-5,> 100 µM (inactive)
same,GI50,ACHN,> 100 µM (inactive)
same,GI50,IGROV-1,> 100 µM (inactive)
same,GI50,HCC 2998,> 100 µM (inactive)
same,GI50,SK-MEL-5,> 100 µM (inactive)
same,GI50,M19-MEL,> 100 µM (inactive)
same,GI50,RXF 393,> 100 µM (inactive)
same,GI50,SK-MEL-28,> 100 µM (inactive)
same,GI50,OVCAR-3,> 100 µM (inactive)
same,GI50,NCI-H522,> 100 µM (inactive)
same,GI50,DMS-114,> 100 µM (inactive)
same,GI50,A549,> 100 µM (inactive)
same,GI50,Malme-3M,> 100 µM (inactive)
same,GI50,SNB-78,> 100 µM (inactive)
same,GI50,SK-MEL-2,> 100 µM (inactive)
same,GI50,SF-295,> 100 µM (inactive)
same,GI50,786-0,> 100 µM (inactive)
same,GI50,SF-268,> 100 µM (inactive)
same,GI50,HOP-18,81.8 µM (inactive)
same,GI50,K562,> 100 µM (inactive)
same,GI50,SNB-19,> 100 µM (inactive)
same,GI50,MOLT-4,> 100 µM (inactive)
same,GI50,CCRF-CEM,> 100 µM (inactive)
same,GI50,HCT-116,> 100 µM (inactive)
same,GI50,OVCAR-8,> 100 µM (inactive)
same,GI50,SNB-75,> 100 µM (inactive)
same,GI50,EKVX,> 100 µM (inactive)
same,GI50,DLD-1,> 100 µM (inactive)
same,GI50,SF-539,> 100 µM (inactive)
same,GI50,KM-20L2,> 100 µM (inactive)
same,GI50,LOX IMVI,> 100 µM (inactive)
same,GI50,DMS-273,> 100 µM (inactive)
same,GI50,HOP-92,> 100 µM (inactive)
same,GI50,A498,> 100 µM (inactive)
same,GI50,HOP-62,> 100 µM (inactive)
same,GI50,LXFL 529,> 100 µM (inactive)
same,GI50,COLO 205,> 100 µM (inactive)
same,GI50,TK-10,> 100 µM (inactive)
same,GI50,RPMI-8226,> 100 µM (inactive)
same,GI50,HT-29,> 100 µM (inactive)
same,GI50,SK-OV-3,> 100 µM (inactive)
same,GI50,SW-620,> 100 µM (inactive)
same,GI50,UO-31,> 100 µM (inactive)
same,GI50,KM12,> 100 µM (inactive)
same,GI50,NCI-H23,> 100 µM (inactive)
same,GI50,XF498,> 100 µM (inactive)
same,GI50,NCI-H460,> 100 µM (inactive)
same,GI50,UACC-257,> 100 µM (inactive)
same,GI50,HL-60,> 100 µM (inactive)
Nc1nc2c(ncn2CC(CO)CC(c2ccccc2)P(=O)(O)O)c(=O)[nH]1 (configuration not stated),GI50,U-251,> 100 µM (inactive)
same,GI50,OVCAR-5,> 100 µM (inactive)
same,GI50,ACHN,> 100 µM (inactive)
same,GI50,IGROV-1,> 100 µM (inactive)
same,GI50,HCC 2998,> 100 µM (inactive)
same,GI50,SK-MEL-5,> 100 µM (inactive)
same,GI50,M19-MEL,> 100 µM (inactive)
same,GI50,RXF 393,> 100 µM (inactive)
same,GI50,SK-MEL-28,> 100 µM (inactive)
same,GI50,OVCAR-3,> 100 µM (inactive)
same,GI50,NCI-H522,> 100 µM (inactive)
same,GI50,DMS-114,> 100 µM (inactive)
same,GI50,A549,> 100 µM (inactive)
same,GI50,Malme-3M,> 100 µM (inactive)
same,GI50,SNB-78,> 100 µM (inactive)
same,GI50,SK-MEL-2,> 100 µM (inactive)
same,GI50,SF-295,> 100 µM (inactive)
same,GI50,SN12C,> 100 µM (inactive)
same,GI50,NCI-H226,> 100 µM (inactive)
same,GI50,786-0,> 100 µM (inactive)
same,GI50,SF-268,> 100 µM (inactive)
same,GI50,HOP-18,> 100 µM (inactive)
same,GI50,K562,> 100 µM (inactive)
same,GI50,M14,> 100 µM (inactive)
same,GI50,SNB-19,> 100 µM (inactive)
same,GI50,MOLT-4,> 100 µM (inactive)
same,GI50,HCT-15,> 100 µM
same,GI50,CCRF-CEM,> 100 µM (inactive)
same,GI50,HCT-116,> 100 µM (inactive)
same,GI50,OVCAR-8,> 100 µM (inactive)
same,GI50,EKVX,> 100 µM (inactive)
same,GI50,DLD-1,> 100 µM (inactive)
same,GI50,SF-539,> 100 µM (inactive)
same,GI50,KM-20L2,> 100 µM (inactive)
same,GI50,UACC-62,> 100 µM (inactive)
same,GI50,LOX IMVI,> 100 µM (inactive)
same,GI50,DMS-273,> 100 µM (inactive)
same,GI50,HOP-92,> 100 µM (inactive)
same,GI50,A498,> 100 µM (inactive)
same,GI50,SR,> 100 µM (inactive)
same,GI50,HOP-62,> 100 µM (inactive)
same,GI50,LXFL 529,> 100 µM (inactive)
same,GI50,CAKI-1,> 100 µM (inactive)
same,GI50,COLO 205,> 100 µM (inactive)
same,GI50,TK-10,> 100 µM (inactive)
same,GI50,RPMI-8226,> 100 µM (inactive)
same,GI50,HT-29,> 100 µM (inactive)
same,GI50,SK-OV-3,> 100 µM (inactive)
same,GI50,SW-620,> 100 µM (inactive)
same,GI50,UO-31,> 100 µM (inactive)
same,GI50,KM12,> 100 µM (inactive)
same,GI50,NCI-H23,> 100 µM (inactive)
same,GI50,XF498,> 100 µM (inactive)
same,GI50,NCI-H460,> 100 µM (inactive)
same,GI50,UACC-257,> 100 µM (inactive)
same,GI50,HL-60,> 100 µM (inactive)
